pIC50: −log10 of the molar value. Structures can show the parent of a compound that is named as a salt.
Legend:
Nav 1.7 [1] = molecular target: T1, Nav 1.7 (Homo sapiens (Human), UniProt Q15858); assay: Nav 1.7 IonWorks Quattro (IWQ) in vitro assay, population patch-clamp; assay type: cell-based; conditions: 293 cells stably transfected with Nav 1.7; block at 26th pulse to −20 mV;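 further: cells held at −110 mV for 3 s, then 26 pulses of 150 ms at 5 Hz, leak-corrected peak current, percent block measured before and after compound, 3–8 min exposure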
Experimental: (§1) Nav 1.7 and Nav 1.5 Ion Works Quattro (IWQ) In Vitro Assays
(§2) 293 cells stably transfected with either Nav 1.7 or with Nav 1.5 were recorded in population patch-clamp mode with the IonWorks® Quattro automated electrophysiology system in accordance with the manufacturer's specifications (Molecular Devices, LLC, Sunnyvale, Calif.). Sodium channel currents were measured in response to a train of depolarizations that induced successively greater inactivation.
(§3) Cells were held at −110 mV for three seconds (Nav 1.7) or half a second (Nav 1.5) from a holding voltage of −15 mV, then put through a series of 26 pulses of 150 msec duration to −20 mV at a frequency of 5 Hz. Cells were then left unclamped for a period of 3 to 8 minutes while a single concentration of test compound was added. Cells were then reclamped and put through the same voltage protocol. Current at the end of the 26th pulse to −20 mV was subtracted from the peak current evoked by the 26th pulse to −20 mV to correct for leak current. Percent block was calculated for each concentration in duplicate, and IC50 curves were fitted to percent block as a function of concentration.

Nav 1.7 [2] = molecular target: T1, Nav 1.7; assay: Nav 1.7 in vitro PatchExpress (PX) assay, whole cell voltage clamp; assay type: cell-based; conditions: 293 cells stably transfected with human Nav1.7; partially inactivated state (20 to 50% inactivation)
Experimental: Nav 1.7 In Vitro PatchExpress (PX) Assay
293 cells stably transfected with human Nav1.7 were recorded in whole cell voltage clamp mode with the PatchXpress automated electrophysiology system (Molecular Devices, LLC, Sunnyvale, Calif.). Compound effects were measured on a partially inactivated state of the sodium channel. Cells were clamped to a holding potential yielding 20 to 50% inactivation. To elicit sodium current, channels were activated by pulsing to −10 mV for 20 msec. This voltage protocol was repeated at a rate of 0.1 Hz throughout the experiment. A single concentration of test compound was applied to cells for a duration of 3 minutes. Peak sodium current was measured at the end of the compound addition period to determine percent inhibition.

Nav 1.5 = Nav 1.5 (Homo sapiens (Human), UniProt Q14524); assay: cell-based;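 further: HEK293 cells stably expressing Nav1.5, sodium current at the 26th of 26 pulses to −20 mV (150 ms, 5 Hz) after compound versus before, leak-corrected, 3–8 min exposure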
Sequence of Nav 1.5 (Q14524 whole entry): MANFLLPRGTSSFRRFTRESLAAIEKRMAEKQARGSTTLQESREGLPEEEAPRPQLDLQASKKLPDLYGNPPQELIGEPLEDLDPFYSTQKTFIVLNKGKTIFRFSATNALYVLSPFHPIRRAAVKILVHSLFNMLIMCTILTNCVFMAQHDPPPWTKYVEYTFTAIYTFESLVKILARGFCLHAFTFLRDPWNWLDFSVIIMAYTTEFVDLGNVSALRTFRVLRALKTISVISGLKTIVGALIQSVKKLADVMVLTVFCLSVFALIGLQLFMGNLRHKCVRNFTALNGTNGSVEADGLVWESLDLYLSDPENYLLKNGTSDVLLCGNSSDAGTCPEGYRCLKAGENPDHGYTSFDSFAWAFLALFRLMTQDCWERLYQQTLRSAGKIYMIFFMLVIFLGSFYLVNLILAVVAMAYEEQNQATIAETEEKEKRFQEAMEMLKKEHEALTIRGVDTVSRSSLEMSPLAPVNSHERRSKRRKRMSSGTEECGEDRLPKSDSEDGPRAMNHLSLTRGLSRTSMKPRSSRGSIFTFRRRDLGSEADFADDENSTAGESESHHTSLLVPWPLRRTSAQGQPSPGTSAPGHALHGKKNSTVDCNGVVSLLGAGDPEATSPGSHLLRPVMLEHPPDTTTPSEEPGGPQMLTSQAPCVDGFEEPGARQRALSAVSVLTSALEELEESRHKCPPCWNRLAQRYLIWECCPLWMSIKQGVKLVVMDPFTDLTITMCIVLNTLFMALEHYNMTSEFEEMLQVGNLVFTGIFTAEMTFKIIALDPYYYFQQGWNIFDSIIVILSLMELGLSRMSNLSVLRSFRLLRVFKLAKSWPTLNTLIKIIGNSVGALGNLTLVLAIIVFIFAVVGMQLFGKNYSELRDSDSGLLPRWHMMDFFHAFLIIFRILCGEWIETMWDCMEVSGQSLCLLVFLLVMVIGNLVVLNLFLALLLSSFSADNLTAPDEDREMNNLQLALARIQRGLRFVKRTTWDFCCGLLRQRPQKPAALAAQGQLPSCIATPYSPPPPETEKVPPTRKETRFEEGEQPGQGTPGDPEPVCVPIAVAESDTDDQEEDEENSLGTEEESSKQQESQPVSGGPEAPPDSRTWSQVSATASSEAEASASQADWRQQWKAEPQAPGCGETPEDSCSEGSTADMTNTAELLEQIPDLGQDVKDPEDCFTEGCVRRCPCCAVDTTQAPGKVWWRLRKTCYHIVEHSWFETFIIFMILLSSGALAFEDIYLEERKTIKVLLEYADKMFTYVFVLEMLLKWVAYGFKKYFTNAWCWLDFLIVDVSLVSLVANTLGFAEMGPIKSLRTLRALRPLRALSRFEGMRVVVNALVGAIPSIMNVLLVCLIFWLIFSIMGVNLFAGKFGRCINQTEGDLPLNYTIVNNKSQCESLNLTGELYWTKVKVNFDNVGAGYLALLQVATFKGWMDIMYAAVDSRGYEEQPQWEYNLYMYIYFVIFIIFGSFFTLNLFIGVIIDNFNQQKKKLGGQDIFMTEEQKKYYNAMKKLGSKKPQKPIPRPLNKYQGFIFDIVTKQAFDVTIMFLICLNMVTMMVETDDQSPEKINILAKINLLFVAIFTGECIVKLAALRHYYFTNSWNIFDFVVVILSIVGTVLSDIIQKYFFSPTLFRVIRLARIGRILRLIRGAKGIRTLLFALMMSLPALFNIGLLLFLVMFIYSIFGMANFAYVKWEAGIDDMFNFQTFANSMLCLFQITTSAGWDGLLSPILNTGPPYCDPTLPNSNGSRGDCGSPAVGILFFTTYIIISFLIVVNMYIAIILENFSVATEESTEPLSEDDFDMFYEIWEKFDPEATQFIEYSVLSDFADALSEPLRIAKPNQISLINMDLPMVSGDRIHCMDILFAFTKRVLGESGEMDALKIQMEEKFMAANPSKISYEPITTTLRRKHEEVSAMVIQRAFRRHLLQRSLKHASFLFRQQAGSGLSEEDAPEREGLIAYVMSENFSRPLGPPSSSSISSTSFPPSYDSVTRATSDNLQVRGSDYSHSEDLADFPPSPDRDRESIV
Experimental: as §1, §2, §3

T1 sequence (Q15858 whole entry): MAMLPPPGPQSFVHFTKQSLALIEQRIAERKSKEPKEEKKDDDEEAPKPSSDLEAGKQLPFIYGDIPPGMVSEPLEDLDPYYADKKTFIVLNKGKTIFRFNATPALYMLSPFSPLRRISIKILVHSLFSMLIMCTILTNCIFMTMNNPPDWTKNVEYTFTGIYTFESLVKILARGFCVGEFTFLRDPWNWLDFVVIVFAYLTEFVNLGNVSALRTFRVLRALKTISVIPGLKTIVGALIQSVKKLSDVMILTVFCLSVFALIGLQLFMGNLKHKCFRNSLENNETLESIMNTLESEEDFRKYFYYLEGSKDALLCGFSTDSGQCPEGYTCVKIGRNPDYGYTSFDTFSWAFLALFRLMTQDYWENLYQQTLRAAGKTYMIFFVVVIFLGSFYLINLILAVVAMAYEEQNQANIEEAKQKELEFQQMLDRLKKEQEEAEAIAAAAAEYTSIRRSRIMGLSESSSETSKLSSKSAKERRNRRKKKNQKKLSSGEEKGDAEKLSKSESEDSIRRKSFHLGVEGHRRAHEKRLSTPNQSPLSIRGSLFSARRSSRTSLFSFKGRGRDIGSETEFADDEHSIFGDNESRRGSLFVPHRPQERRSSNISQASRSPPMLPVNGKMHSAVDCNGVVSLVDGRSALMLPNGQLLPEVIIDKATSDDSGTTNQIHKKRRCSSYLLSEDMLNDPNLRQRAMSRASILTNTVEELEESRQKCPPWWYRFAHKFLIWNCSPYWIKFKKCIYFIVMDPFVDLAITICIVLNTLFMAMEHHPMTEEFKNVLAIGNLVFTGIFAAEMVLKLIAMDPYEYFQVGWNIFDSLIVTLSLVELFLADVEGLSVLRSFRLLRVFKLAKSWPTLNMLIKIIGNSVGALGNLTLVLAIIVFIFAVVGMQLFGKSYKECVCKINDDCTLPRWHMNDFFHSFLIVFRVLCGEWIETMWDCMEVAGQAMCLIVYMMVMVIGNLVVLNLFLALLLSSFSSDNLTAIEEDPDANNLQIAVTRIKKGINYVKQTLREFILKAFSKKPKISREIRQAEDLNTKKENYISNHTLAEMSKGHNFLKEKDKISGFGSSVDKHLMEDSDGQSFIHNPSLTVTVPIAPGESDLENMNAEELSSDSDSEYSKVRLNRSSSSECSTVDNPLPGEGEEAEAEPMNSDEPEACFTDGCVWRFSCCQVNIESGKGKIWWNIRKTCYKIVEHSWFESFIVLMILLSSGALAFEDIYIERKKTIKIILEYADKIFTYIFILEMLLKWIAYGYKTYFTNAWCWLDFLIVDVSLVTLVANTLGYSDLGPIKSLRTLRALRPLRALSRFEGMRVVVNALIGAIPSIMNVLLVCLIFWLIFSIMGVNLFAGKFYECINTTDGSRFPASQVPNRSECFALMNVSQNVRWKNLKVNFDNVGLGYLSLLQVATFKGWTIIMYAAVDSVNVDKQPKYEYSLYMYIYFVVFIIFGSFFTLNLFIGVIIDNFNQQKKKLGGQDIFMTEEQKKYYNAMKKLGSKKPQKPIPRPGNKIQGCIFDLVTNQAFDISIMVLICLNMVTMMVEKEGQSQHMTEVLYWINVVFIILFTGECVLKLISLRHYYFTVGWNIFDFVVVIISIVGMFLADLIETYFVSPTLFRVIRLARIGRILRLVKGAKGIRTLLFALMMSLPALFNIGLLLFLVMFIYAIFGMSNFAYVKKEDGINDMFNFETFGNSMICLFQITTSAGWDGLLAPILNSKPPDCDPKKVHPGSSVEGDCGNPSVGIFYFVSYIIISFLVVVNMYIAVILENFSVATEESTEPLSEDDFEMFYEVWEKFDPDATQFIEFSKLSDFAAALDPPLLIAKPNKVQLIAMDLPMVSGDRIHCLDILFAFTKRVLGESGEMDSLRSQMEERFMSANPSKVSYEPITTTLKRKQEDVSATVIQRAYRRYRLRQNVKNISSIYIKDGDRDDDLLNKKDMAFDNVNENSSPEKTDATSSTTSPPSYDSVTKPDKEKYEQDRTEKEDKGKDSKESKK

Row | SMILES | pIC50 (Nav 1.7 [1]) | pIC50 (Nav 1.7 [2]) | pIC50 (Nav 1.5)
1 | O=S(=O)(Nc1ncns1)N1CCc2c(cccc2-c2ccc(C(F)(F)F)cc2C2=CCOCC2)C1 [Example 19, 5-(2-(3,6-Dihydro-2H-pyran-4-yl)-4-(trifluoromethyl)phenyl)-N-(1,2,4-thiadiazol-5-yl)-3,4-dihydroisoquinoline-2(1H)-sulfonamide] | 6.42 | 5.77 | < 5.00
2 | O=S(=O)(Nc1ncns1)N1CCc2c(cccc2-c2cccc3ccccc23)C1 [Example 24, 5-(Naphthalen-1-yl)-N-(1,2,4-thiadiazol-5-yl)-3,4-dihydroisoquinoline-2(1H)-sulfonamide] | 5.57 | 5.31 | < 5.00
3 | COc1ccc(-c2cccc3c2CCN(S(=O)(=O)Nc2ncns2)C3)c(OC)c1 [Example 26, 5-(2,4-Dimethoxyphenyl)-N-(1,2,4-thiadiazol-5-yl)-3,4-dihydroisoquinoline-2(1H)-sulfonamide] | 5.82 | 5.66 | < 5.00
4 | COc1ccc(OC)c(-c2cccc3c2CCN(S(=O)(=O)Nc2ncns2)C3)c1 [Example 27, 5-(2,5-Dimethoxyphenyl)-N-(1,2,4-thiadiazol-5-yl)-3,4-dihydroisoquinoline-2(1H)-sulfonamide] | 6.90 | 6.17 | < 5.00
5 | COc1cccc(OC)c1-c1cccc2c1CCN(S(=O)(=O)Nc1ncns1)C2 [Example 28, 5-(2,6-Dimethoxyphenyl)-N-(1,2,4-thiadiazol-5-yl)-3,4-dihydroisoquinoline-2(1H)-sulfonamide] | 5.33 | < 4.52 | < 5.00
6 | COc1ccc(F)cc1-c1cccc2c1CCN(S(=O)(=O)Nc1ncns1)C2 [Example 29, 5-(5-Fluoro-2-methoxyphenyl)-N-(1,2,4-thiadiazol-5-yl)-3,4-dihydroisoquinoline-2(1H)-sulfonamide] | 7.20 | 6.43 | < 5.00
7 | COc1cc(F)ccc1-c1cccc2c1CCN(S(=O)(=O)Nc1ncns1)C2 [Example 30, 5-(4-Fluoro-2-methoxyphenyl)-N-(1,2,4-thiadiazol-5-yl)-3,4-dihydroisoquinoline-2(1H)-sulfonamide] | 6.86 | 6.25 | < 5.00
8 | O=S(=O)(Nc1ncns1)N1CCc2c(cccc2-c2ccc(C(F)(F)F)cc2N2CCOCC2)C1 [Example 31, 5-(2-Morpholino-4-(trifluoromethyl)phenyl)-N-(1,2,4-thiadiazol-5-yl)-3,4-dihydroisoquinoline-2(1H)-sulfonamide] | 6.12 | 5.76 | < 5.00
9 | O=S(=O)(Nc1nccs1)N1CCc2c(cccc2-c2ccc(C(F)(F)F)cc2C2=CCNCC2)C1 [Example 36, 5-(2-(1,2,3,6-Tetrahydropyridin-4-yl)-4-(trifluoromethyl)phenyl)-N-(thiazol-2-yl)-3,4-dihydroisoquinoline-2(1H)-sulfonamide hydrochloride] | 5.72 | 5.33 | < 5.00
10 | O=S(=O)(Nc1ccncn1)N1CCc2c(cccc2-c2ccc(C(F)(F)F)cc2C2=CCNCC2)C1 [Example 37, N-(Pyrimidin-4-yl)-5-(2-(1,2,3,6-tetrahydropyridin-4-yl)-4-(trifluoromethyl)phenyl)-3,4-dihydroisoquino line-2(1H)-sulfonamide] | 5.40 | 4.72 | < 5.00
11 | COc1cc(C2CC2)ccc1-c1cccc2c1CCN(S(=O)(=O)Nc1ncns1)C2 [Example 45, 5-(4-Cyclopropyl-2-methoxyphenyl)-N-(1,2,4-thiadiazol-5-yl)-3,4-dihydroisoquinoline-2(1H)-sulfonamide] | 7.17 | 6.06 | < 5.00
12 | COc1cc(C(F)(F)F)ccc1-c1nccc2c1CCN(S(=O)(=O)Nc1ncns1)C2 [Example 46, 5-(2-Methoxy-4-(trifluoromethyl)phenyl)-N-(1,2,4-thiadiazol-5-yl)-3,4-dihydro-2,6-naphthyridine-2(1H)-sulfonamide] | 7.72 | 6.03 | < 5.00
13 | COc1cc(C2CC2)ccc1-c1nccc2c1CCN(S(=O)(=O)Nc1ncns1)C2 [Example 47, 5-(4-Cyclopropyl-2-methoxyphenyl)-N-(1,2,4-thiadiazol-5-yl)-3,4-dihydro-2,6-naphthyridine-2(1H)-sulfonamide] | 7.23 | 6.25 | < 5.00

More lines, main results first:

Row | pIC50 (Nav 1.7 [1]) | pIC50 (Nav 1.7 [2]) | SMILES | pIC50 (Nav 1.5)
14 | 7.09 | 6.33 | O=S(=O)(Nc1ncns1)N1CCc2c(cccc2-c2ccc(C(F)(F)F)cc2-c2cccnc2)C1 [Example 22, 5-(2-(Pyridin-3-yl)-4-(trifluoromethyl)phenyl)-N-(1,2,4-thiadiazol-5-yl)-3,4-dihydroisoquinoline-2(1H)-sulfonamide] | < 5.00
15 | 6.73 | 6.10 | O=S(=O)(Nc1ncns1)N1CCc2c(cccc2-c2ccc(C(F)(F)F)cc2-c2cncnc2)C1 [Example 23, 5-(2-(Pyrimidin-5-yl)-4-(trifluoromethyl)phenyl)-N-(1,2,4-thiadiazol-5-yl)-3,4-dihydroisoquinoline-2(1H)-sulfonamide] | < 5.00
16 | 7.59 | 6.66 | O=S(=O)(Nc1ncns1)N1CCc2c(cccc2-c2ccc(C(F)(F)F)cc2-n2ccnc2)C1 [Example 32, 5-(2-(1H-Imidazol-1-yl)-4-(trifluoromethyl)phenyl)-N-(1,2,4-thiadiazol-5-yl)-3,4-dihydroisoquinoline-2(1H)-sulfonamide] | 5.18
17 | 6.45 | 6.72 | O=S(=O)(Nc1ncc(F)s1)N1CCc2c(cccc2-c2ccc(C(F)(F)F)cc2C2=CCNCC2)C1 [Example 33, N-(5-Fluorothiazol-2-yl)-5-(2-(1,2,3,6-tetrahydropyridin-4-yl)-4-(trifluoromethyl)phenyl)-3,4-dihydroisoquinoline-2(1H)-sulfonamide hydrochloride] | < 5.00
18 | 7.19 | 7.30 | O=S(=O)(Nc1ncns1)N1CCc2c(cccc2-c2ccc(C(F)(F)F)cc2C2=CCNC2)C1 [Example 34, 5-(2-(2,5-Dihydro-1H-pyrrol-3-yl)-4-(trifluoromethyl)phenyl)-N-(1,2,4-thiadiazol-5-yl)-3,4-dihydroisoquinoline-2(1H)-sulfonamide hydrochloride] | < 5.00
19 | 6.50 | 6.77 | O=S(=O)(Nc1ncc(F)s1)N1CCc2c(cccc2-c2ccc(C(F)(F)F)cc2C2CCNCC2)C1 [Example 35, N-(5-Fluorothiazol-2-yl)-5-(2-(piperidin-4-yl)-4-(trifluoromethyl)phenyl)-3,4-dihydroisoquinoline-2(1H)-sulfonamide hydrochloride] | < 5.00
20 | 7.04 | 6.16 | O=S(=O)(Nc1ncc(F)s1)N1CCc2c(cccc2-c2ccc(C(F)(F)F)cc2-n2ccnc2)C1 [Example 38, 5-(2-(1H-Imidazol-1-yl)-4-(trifluoromethyl)phenyl)-N-(5-fluorothiazol-2-yl)-3,4-dihydroisoquinoline-2(1H)-sulfonamide] | < 5.00
21 | 6.62 | 5.93 | CN1CC=C(c2cc(C(F)(F)F)ccc2-c2cccc3c2CCN(S(=O)(=O)Nc2ncc(F)s2)C3)CC1 [Example 39, N-(5-Fluorothiazol-2-yl)-5-(2-(1-methyl-1,2,3,6-tetrahydropyridin-4-yl)-4-(trifluoromethyl)phenyl)-3,4-dihydroisoquinoline-2(1H)-sulfonamide] | < 5.00
22 | 5.55 | 4.92 | CN1CC=C(c2ccc(C(F)(F)F)cc2-c2cccc3c2CCN(S(=O)(=O)Nc2ncc(F)s2)C3)CC1 [Example 40, N-(5-Fluorothiazol-2-yl)-5-(2-(1-methyl-1,2,3,6-tetrahydropyridin-4-yl)-5-(trifluoromethyl)phenyl)-3,4-dihydroisoquinoline-2(1H)-sulfonamide] | < 5.00
23 | 6.40 | 5.13 | CN1CCN(c2cc(C(F)(F)F)ccc2-c2cccc3c2CCN(S(=O)(=O)Nc2ncc(F)s2)C3)CC1 [Example 41, N-(5-Fluorothiazol-2-yl)-5-(2-(4-methylpiperazin-1-yl)-4-(trifluoromethyl)phenyl)-3,4-dihydroisoquinoline-2(1H)-sulfonamide] | < 5.00
24 | 6.64 | 5.87 | Cc1cn(-c2cc(C(F)(F)F)ccc2-c2cccc3c2CCN(S(=O)(=O)Nc2ncc(F)s2)C3)cn1 [Example 42, N-(5-fluorothiazol-2-yl)-5-(2-(4-methyl-1H-imidazol-1-yl)-4-(trifluoromethyl)phenyl)-3,4-dihydroisoquinoline-2(1H)-sulfonamide] | < 5.00
25 | 6.77 | 5.72 | Cc1cncn1-c1cc(C(F)(F)F)ccc1-c1cccc2c1CCN(S(=O)(=O)Nc1ncc(F)s1)C2 [Example 43, N-(5-Fluorothiazol-2-yl)-5-(2-(5-methyl-1H-imidazol-1-yl)-4-(trifluoromethyl)phenyl)-3,4-dihydroisoquinoline-2(1H)-sulfonamide] | < 5.00
26 | 6.87 | 6.59 | COc1cc(C(F)(F)F)ccc1-c1cccc2c1CCN(S(=O)(=O)Nc1ncns1)C2 [Example 44, 5-(2-Methoxy-4-(trifluoromethyl)phenyl)-N-(1,2,4-thiadiazol-5-yl)-3,4-dihydroisoquinoline-2(1H)-sulfonamide] | < 5.00
